Our source for the Activity values is ChEMBL document CHEMBL5528047, “A Potent SOS1 PROTAC Degrader with Synergistic Efficacy in Combination with KRASG12C Inhibitor” (J Med Chem, 2024).

Structures are written as SMILES. Activity calls are given as the source filed them. No cut-off for these calls is given here.

Assay [1] addresses von Hippel-Lindau disease tumor suppressor/Son of sevenless homolog 1 (Homo sapiens, UniProt Q07889+P40337). As to the kind of experiment: Protac activity at VHL/SOS1 in human K562 cells assessed as SOS1 degradation at 1 uM preincubated with BI3406 for 2 hrs followed by compound addition and measured after 2 hrs by Western blotting analysis. The assay is classed as cell-based. On the technique in general: In western blotting, separated proteins are transferred to a membrane and probed.

The target of assay [2] is T1, Son of sevenless homolog 1 (Homo sapiens) (UniProt Q07889).
T1 sequence (whole entry): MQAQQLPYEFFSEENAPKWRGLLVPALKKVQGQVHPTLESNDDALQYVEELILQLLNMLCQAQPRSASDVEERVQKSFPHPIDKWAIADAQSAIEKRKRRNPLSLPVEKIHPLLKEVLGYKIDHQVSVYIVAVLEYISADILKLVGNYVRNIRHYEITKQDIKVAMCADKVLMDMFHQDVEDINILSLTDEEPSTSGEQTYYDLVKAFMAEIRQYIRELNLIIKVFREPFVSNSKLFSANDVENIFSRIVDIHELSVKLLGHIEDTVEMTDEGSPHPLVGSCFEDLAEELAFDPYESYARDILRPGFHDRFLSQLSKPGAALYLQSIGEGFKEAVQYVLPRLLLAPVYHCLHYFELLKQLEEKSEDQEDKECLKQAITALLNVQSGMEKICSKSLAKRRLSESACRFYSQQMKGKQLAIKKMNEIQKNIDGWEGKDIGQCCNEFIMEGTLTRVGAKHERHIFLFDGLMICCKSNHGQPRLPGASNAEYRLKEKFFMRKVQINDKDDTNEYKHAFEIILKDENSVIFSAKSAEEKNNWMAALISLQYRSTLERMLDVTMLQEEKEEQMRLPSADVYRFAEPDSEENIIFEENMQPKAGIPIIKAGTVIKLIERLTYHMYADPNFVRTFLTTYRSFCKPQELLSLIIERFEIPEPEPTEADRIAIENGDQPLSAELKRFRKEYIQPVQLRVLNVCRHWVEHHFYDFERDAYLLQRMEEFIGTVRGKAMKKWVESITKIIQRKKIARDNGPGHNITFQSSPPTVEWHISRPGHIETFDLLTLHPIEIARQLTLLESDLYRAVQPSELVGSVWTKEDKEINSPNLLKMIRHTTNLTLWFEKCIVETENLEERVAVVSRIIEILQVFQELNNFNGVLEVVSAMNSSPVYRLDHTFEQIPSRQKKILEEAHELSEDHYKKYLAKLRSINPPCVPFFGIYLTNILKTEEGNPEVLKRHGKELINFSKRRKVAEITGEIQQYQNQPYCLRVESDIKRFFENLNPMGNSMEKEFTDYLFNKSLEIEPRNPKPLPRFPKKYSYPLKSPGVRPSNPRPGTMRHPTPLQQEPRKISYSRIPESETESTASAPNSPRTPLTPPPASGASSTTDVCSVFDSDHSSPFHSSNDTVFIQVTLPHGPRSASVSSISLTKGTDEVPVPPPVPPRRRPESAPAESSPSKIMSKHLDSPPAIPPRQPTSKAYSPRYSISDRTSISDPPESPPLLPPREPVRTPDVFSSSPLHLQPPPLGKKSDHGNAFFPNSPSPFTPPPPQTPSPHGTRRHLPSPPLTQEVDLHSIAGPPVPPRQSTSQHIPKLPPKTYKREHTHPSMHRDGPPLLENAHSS
Briefly: Induction of SOS1 degradation in human NCI-H358 cells at 1 uM measured upto 72 hrs by Western blotting analysis. The assay is classed as cell-based.

Chain of von Hippel-Lindau disease tumor suppressor/Son of sevenless homolog 1 (P40337 whole entry, looked up, one chain of several): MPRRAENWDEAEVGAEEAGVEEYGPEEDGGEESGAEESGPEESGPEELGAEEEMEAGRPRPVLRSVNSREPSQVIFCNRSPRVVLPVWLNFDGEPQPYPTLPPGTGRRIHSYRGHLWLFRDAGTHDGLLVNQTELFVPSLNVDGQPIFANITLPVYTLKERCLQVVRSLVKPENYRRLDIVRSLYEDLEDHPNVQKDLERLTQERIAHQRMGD

Regarding `COc1cc2nc(C)nc(N[C@H](C)c3cc(N)cc(C(F)(F)F)c3)c2cc1OCCCCC(=O)N[C@H](C(=O)N1C[C@H](O)C[C@H]1C(=O)NCc1ccc(-c2scnc2C)cc1)C(C)(C)C`, in assay [1], the outcome was inactive. In addition, the outcome in assay [2] was Active.
